Blank lines part the entries; values can stand above or below the compound they belong to.
How the values were obtained:
isolated mitochondria = assay: calcium induced mitochondrial damage (swelling, OD at 535 nm) in isolated heart mitochondria; type: biochemical, rat; details: 10^−14-10^−12 M; 33 μM CaCl2
Method: FIG. 6 depicts the protective effect of epicatechin on calcium induced mitochondrial damage (as measured by mitochondrial swelling). Swelling was evaluated by monitoring changes in optical density (OD, light absorbance) as follows: Hearts from male rats were excised and weighed. Left ventricles were homogenized (0.1 g/mL) in solution A (Sucrose 2M, EDTA 0.01M, Hepes 0.5M: pH=7.4), centrifuged 10 min (800×g), 4° C., the supernatant was centrifuged 10 min (8000×g), 4° C. and the pellet was re-suspended in solution B (Sucrose 2M, EDTA 0.01M, Tris 0.5M-H2PO4-50 mM: pH=7.4) and centrifuged 10 min (10000×g), 4° C. […] Pellet was re-suspended in 10 mL of solution C (Sucrose 2M, EDTA 0.01M, Tris 0.5M, H2PO4 50 mM, Succinate 1M: pH=7.4).

[1] = test system: mitochondrial permeability transition pores; details: cited from earlier work
[2] = test system: differentiated human skeletal muscle cells; assay: mitochondrial respiration (oxygen consumption rate, Seahorse apparatus) in differentiated human skeletal muscle cells; type: cell-based; details: cells treated with 30 nM epicatechin for 48 h
Method: FIG. 1 depicts epicatechin stimulation on-demand mitochondrial respiration in human cells. […] Rates of respiration are reported as oxygen consumption rates (OCR) and were measured using a Seahorse apparatus.
FIG. 2 depicts blockade of epicatechin's stimulatory effect by an inhibitor of pyruvate transport.

[3] = test system: mitochondrial oxidative phosphorylation (OXPHOS) related complexes; assay: Western blot of OXPHOS complexes in skeletal muscle of prednisolone-treated rats; type: in vivo; details: prednisolone 10 mg/kg/day SC, 10 days, rat quadriceps
Method: FIG. 3 depicts the effects of the administration of 10 consecutive days of prednisolone (10 mg/kg/day, SC) on rat skeletal muscle mitochondrial oxidative phosphorylation (OXPHOS) related complexes levels as assessed by Western blots. Three groups of male rats were analyzed: 1) control group (saline solution, SC and saline solution by gavage BID); 2) prednisolone (10 mg/kg/day, SC and saline solution by gavage BID); and 3) prednisolone (10 mg/kg/day, SC) plus epicatechin (Epi; 1 mg/kg/day by gavage BID). Western blots of isolated skeletal muscle (quadriceps) from each group were probed with a cocktail of monoclonal antibodies to electron transport chain proteins (OXPHOS) (20 KDa subunit of complex I, 26 KDa subunit of complex IV, subunit core 2 of complex III, 30 KDa complex II and ATP synthase 54 Kda complex V). […]
Western blots were performed as follows: Approximately 50 mg of the heart and quadriceps femoris muscles were homogenized with a polytron in 500 μl lysis buffer (1% triton X-100, 20 mM Tris, 140 mM NaCl, 2 mM EDTA, and 0.1% SDS) with protease and phosphatase inhibitor cocktails (P2714 and P2850, Sigma-Aldrich, St. Louis, Mo.) supplemented with 0.15 mM PMSF, 5 mM Na3VO4 and 3 mM NaF. […] The total protein content was measured in the supernatant using the Bradford method. […] The band intensities were digitally quantified using ImageJ software.

[4] = fasting glucose levels in prednisolone-treated rats; type: in vivo, rat; details: prednisolone 10 mg/kg/day SC, 10 days
Method: Three groups of male rats were analyzed: 1) control group (saline solution, SC and saline solution by gavage BID); 2) prednisolone (10 mg/kg/day, SC and saline solution by gavage BID) and; 3) prednisolone (10 mg/kg/day, SC) plus epicatechin (Epi; 1 mg/kg/day by gavage BID). Blood samples were obtained from animals on each group after 12 hours fasting, Glucose levels were determined spectrophotometrically with an autokit glucose (Wako) kit.

[5] = oral glucose tolerance test in prednisolone-treated rats; type: in vivo, rat; details: prednisolone 10 mg/kg/day SC, 10 days; oral glucose 1.25 g/Kg, 0-4 hours
Method: Blood samples were obtained from animals on each group from 0-4 hours after an oral glucose charge (1.25 g/Kg). Glucose levels were determined spectrophotometrically with an autokit glucose (Wako) kit.

Compound: O=C(NCCO[N+](=O)[O-])c1cccnc1 [Nicorandil, N-[2-(Nitroxy)ethyl]-3-pyridinecarboxamide]
- calcium induced mitochondrial swelling (isolated mitochondria): blocks in a dose dependent manner
- mitochondrial pore formation in response to ischemia [1]: prevent mitochondrial pore formation

Compound: N#CC(=Cc1ccccc1)C(=O)O [a-cyannocinnamate]
- blockade of epicatechin-stimulated maximal rates of respiration [2]: blocked

Compound: OCC1OC(O)CC(O)C1O (stereo not shown) [deoxyglucose]
- blockade of epicatechin-stimulated maximal rates of respiration [2]: not by deoxyglucose

- skeletal muscle mitochondrial complex (I-V) levels [3]: reduced
- glucose levels after 12 hours fasting [4]: significant hyperglycemia
Compound: C[C@]12C=CC(=O)C=C1CC[C@@H]1[C@@H]2[C@@H](O)C[C@@]2(C)[C@H]1CC[C@]2(O)C(=O)CO [prednisolone]
- oral glucose tolerance [5]: Abnormal glucose tolerance
